From PMC7552917, “Systematic exploration of different E3 ubiquitin ligases: an approach towards potent and selective CDK6 degraders” (Chemical Science, 2020)
Like-named read-outs stand apart in the source and are kept apart here.

Experiments:
CDK6 [1] = target: T1, CDK6 (Mus musculus, UniProt Q64261); test: CDK6 degradation in murine cell lines 32D and Ba/F3, western blot; type: cell-based; conditions: 16 h
T1 construct: western blotting experiments with the murine myeloid 32D cell line and the murine pro-B-cell line Ba/F3; endogenous in cells; host or cells: 32D (murine myeloid) and Ba/F3 (murine pro-B)
T1 sequence (Q64261 whole entry): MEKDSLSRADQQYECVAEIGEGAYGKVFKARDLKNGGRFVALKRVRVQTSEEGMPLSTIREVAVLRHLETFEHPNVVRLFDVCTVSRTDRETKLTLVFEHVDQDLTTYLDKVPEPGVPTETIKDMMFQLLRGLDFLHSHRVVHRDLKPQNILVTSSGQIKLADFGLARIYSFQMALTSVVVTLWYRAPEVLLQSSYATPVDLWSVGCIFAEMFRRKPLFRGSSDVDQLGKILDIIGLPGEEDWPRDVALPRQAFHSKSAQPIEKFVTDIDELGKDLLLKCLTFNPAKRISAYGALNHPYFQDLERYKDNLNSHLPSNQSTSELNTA
Text: When bound to IMiDs, human CRBN induces the recruitment of the neosubstrates IKZF1 and IKZF3 via a Val-388 interaction,[53],[55] leading to their subsequent proteasomal degradation. […] The previously reported BRD4 degrader dBET1 was capable of binding to murine CRBN and performed as an active PROTAC in murine cells.[57],[58] To test whether our CRBN-based degrader 11 maintains CDK6 degradation across different species, we performed western blotting experiments with the murine myeloid 32D cell line and the murine pro-B-cell line Ba/F3 (Fig. 2A). […] While the activity of BSJ-03-123 (8) was attenuated at this concentration, 11 mediated on-target effects at concentrations as low as 10 nM (Fig. 2B).
Fig. 2 CDK6 degradation by CRBN-based degrader 11 is conserved in murine cell lines. (A) Human cell lines MM.1S and murine cell lines 32D and Ba/F3 were treated with vehicle, pomalidomide (POM), CDK6-selective degrader BSJ-03-123 (8), negative control 21, or PROTAC 11 at 0.1 μM for 16 h; (B) CDK6-degradation is induced in a dose-dependent manner in murine cells. Murine cell lines 32D and Ba/F3 were treated with PROTAC 11 at indicated concentrations for 16 h.
(§1) Multiple myeloma, leukaemia, and murine cell lines:
(§2) After respective designated treatments, cells were washed with 1× PBS and lysed in IP lysis buffer (Pierce) containing HALT protease and phosphatase inhibitor cocktail (Thermo Scientific). Sodium dodecyl sulfate-polyacrylamide gel electrophoresis (SDS-PAGE) was performed with 5–20 µg of protein loaded per sample. Gel electrophoresis was carried out at a constant voltage. Proteins were transferred onto Immobilon-P transfer membranes (Millipore). Membranes were blocked with 5% milk in Tris Buffered Saline with 0.05% Tween 20 (TBS-T) followed by overnight incubation at 4 °C with shaking in primary antibodies diluted in 5% BSA in TBS-T. After incubation with respective secondary HRP-conjugated antibodies diluted in 5% milk in TBST, detection of proteins was performed using either WesternBright ECL HRP substrate or WesternBright Sirius HRP substrate (Advansta). Chemiluminescence was detected with ChemiDoc™ XRS+ System (Bio-Rad). For further detection of other proteins on the same membrane, membranes were subjected to incubation in Restore Western Blot Stripping Buffer, followed by re-blocking, and further probing of proteins was carried out. Quantification was performed using ImageJ (National Institutes of Health). […]

[2] = elog D7.4 by chromatographic (HPLC) method; type: physicochemical; conditions: Polaris C18-A column, pH 7.4, read-out: elog D7.4 (experimental distribution coefficient at pH 7.4)
Protocol: Supplementary Information: Physical Chemistry
N. Molecular Descriptor Calculation […]
O. Physicochemical Measurements
The determination of the elog D7.4 values was performed by a chromatographic method according to […]
The column was a Polaris C18-A column (2 mm I.D., 50 mm length, 3 μm particle size) from Agilent Technologies. A linear mobile phase gradient was applied with […] TRIS buffer adjusted to pH 7.4 and MeCN. Therefore, the gradient was run from 5% […]
between the runs with a constant flow-rate of 0.8 ml/min and a temperature of 25 °C. The output wavelength of the detector was set to 269.5 nm. In order to calibrate the log D7.4 to the retention time, 6 different drugs with known log D7.4 were dissolved in DMSO and 10 µl were injected […]
Approximately 1 mg of the samples was dissolved in DMSO and 5 µl were injected. Analyses were conducted in duplicates. Subsequently, the mean retention times of the analytes were taken to calculate their log D7.4 values with aid of the calibration line.

CDK4 = target: T2, CDK4 (Homo sapiens, UniProt P11802); test: CDK4 degradation, western blot of MM.1S cells; type: cell-based; conditions: MM1.S, 16 h, read-out: D CDK4: remaining CDK4 levels
T2 construct: Percentage values are normalized to DMSO-treated MM.1S cells and the respective loading controls; endogenous in cells; host or cells: MM.1S (human multiple myeloma)
T2 sequence (P11802 whole entry): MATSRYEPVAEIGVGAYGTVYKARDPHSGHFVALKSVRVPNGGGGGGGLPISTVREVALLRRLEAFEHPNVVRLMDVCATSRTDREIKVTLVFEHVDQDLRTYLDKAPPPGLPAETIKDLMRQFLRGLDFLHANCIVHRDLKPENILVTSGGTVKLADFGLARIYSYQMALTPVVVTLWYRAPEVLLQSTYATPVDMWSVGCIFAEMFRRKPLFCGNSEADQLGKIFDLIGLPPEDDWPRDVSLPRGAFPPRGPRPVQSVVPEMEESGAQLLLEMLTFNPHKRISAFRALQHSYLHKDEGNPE
Text: (§3) We determined the concentration of both kinases and CRBN, the latter in order to control the expression of the corresponding ligase. Since IMiDs, such as pomalidomide, cause the degradation of the lymphoid transcription factors Ikaros (IKZF1) and Aiolos (IKZF3) through the involvement of CRBN,[53],[54] this undesired effect was inspected. […] As further characteristics of CDK4/6d, the desired selectivity of CDK6 over CDK4 degradation and the unwanted influence on the IKZF1 concentration were determined. […] Next, we determined the concentration- and time-dependent activity of 11 (Fig. S2, ESI ^†).
as §1
as §2, with “was” for “was carried out. Quantification was performed using ImageJ (National Institutes of Health).”

CDK6 [3] = target: T3, CDK6 (Homo sapiens, UniProt Q00534); test: CDK6 degradation, western blot of MM.1S cells; type: cell-based; conditions: for Selectivity ratio D CDK4/D CDK6 for the degradation of CDK6 over CDK4 / remaining activity at 0.1 µM / remaining activity at 1 µM: 16 h; for remaining activity at 0.1 µM / remaining activity at 1 µM: MM1.S, read-out: D CDK6: remaining CDK6 levels; for Time CDK6 degradation persists (CDK6 protein below 50%) after drug washout: 0.1 μM for 16 h, then washout with PBS; for Persistence of CDK6 degradation after single drug exposure (long-term treatment): no washout
T3 construct: Percentage values are normalized to DMSO-treated MM.1S cells and the respective loading controls; endogenous in cells; host or cells: MM.1S (human multiple myeloma)
T3 sequence (Q00534 whole entry): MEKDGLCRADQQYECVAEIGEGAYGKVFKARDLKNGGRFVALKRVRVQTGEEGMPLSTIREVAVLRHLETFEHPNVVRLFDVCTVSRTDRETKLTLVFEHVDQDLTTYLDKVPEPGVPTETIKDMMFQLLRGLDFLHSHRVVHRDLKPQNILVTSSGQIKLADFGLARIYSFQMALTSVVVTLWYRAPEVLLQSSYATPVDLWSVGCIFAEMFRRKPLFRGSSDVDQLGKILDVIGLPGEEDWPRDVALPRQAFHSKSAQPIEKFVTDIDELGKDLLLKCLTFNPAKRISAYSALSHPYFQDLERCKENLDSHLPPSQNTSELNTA
Text: as §3, §1
as §2, with “was” for “was carried out. Quantification was performed using ImageJ (National Institutes of Health).”

HEL cells = test: Cell viability assay (CellTiter-Glo), HEL cells; type: cell-based; conditions: Homo sapiens, 96 h
Protocol: as §1
(§4) Cells were seeded in 96-well plates with media containing indicated concentrations of respective compounds and plates were incubated at 37 °C for 96 hours. Readout was performed with CellTiter-Glo® Luminescent Cell Viability Assay (Promega) according to the manufacturer’s protocol and luminescence was measured with POLARStar Omega plate reader (BMG LabTech). All results were normalized to non-treated conditions and data represent mean ±SD of biological triplicates. […]
(§5) Dose response curves were modeled and plotted by using GraphPad Prism software (GraphPad Software). Statistical analysis was performed using GraphPad Prism software (GraphPad Software).
(§6) Variance of biological replicates is represented as the standard error of the mean (SEM) or as the […]

[4] = test system: MM.1S, LP-1, AMO-1, MOLM-13, HEL, KG-1, K562, Nalm-6; test: Cell viability assay (CellTiter-Glo), multiple myeloma and leukemia cell lines; type: cell-based, human; conditions: 96 h, 0.1 or 1 μM
Protocol: as §1, §4, §5, §6

[5] = Susceptibility to hydrolysis in buffer, LC/MS; type: physicochemical; conditions: 37 °C; for Stability to hydrolysis at pH 1: buffer pH 1, 24 h
Protocol: Next, we investigated the persistence of CDK6 degradation after single drug exposure. […] The differences were even more pronounced when conducting a drug washout-step, showing that while BSJ-03-123 kept CDK6 protein below 50% for a maximum of 6 h, CDK6 degradation mediated by PROTACs 27 and 34 was more persistent and stable for up to 72 h (Fig. 4E and S10, ESI ^†). […] Since these degraders mainly differ in the ligase-binding part, we hypothesized that the deviations in the long-term experiments (Fig. 5A) are due to chemical inactivation of the CRBN ligand. We then tested compounds 27, 34 (VHL-based) and BSJ-03-123 (8, CRBN-based) for susceptibility to hydrolysis. These PROTACs were incubated in two different buffers for 24 h at 37 °C and aliquots were analysed by LC/MS.
Fig. 5 (A) Quantification of long-term treatment experiments (see Fig. S9, ESI ^†) and (B) drug stability data at pH 1 and pH 7.4. Acetonitrile solutions of the PROTACs were mixed with two different buffers and incubated for 24 hours at 37 °C. Subsequently, aliquots were analysed by LC/MS and normalized to acetonitrile solutions.

MDA-MB-231 cells = test: Cell viability assay (CellTiter-Glo), MDA-MB-231 breast cancer cells; type: cell-based, human; conditions: 96 h
Protocol: Breast cancer cell lines:
To access the compound effect on cell viability, cells were plated in 384-well tissue culture-treated plates (Greiner Bio One). Twenty-four hours later, tested compounds were added into culture to the desired concentrations. Cell viability was measured by using CellTiter-Glo® Luminescent Cell Viability Assay (Promega) at day 4 or day 7 post-treatment and normalized by non-treated controls. […]
as §5, §6

IKZF1 = target: T4, IKZF1 (Homo sapiens, UniProt Q13422+Q96SW2); test: Neosubstrate IKZF1 degradation, western blot of MM.1S cells; type: cell-based; conditions: MM1.S, 16 h, normalized to DMSO (100%), read-out: D IKZF1: remaining IKZF1 levels;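 also: test concentration 0.1 µM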
T4 construct: endogenous in cells; host or cells: MM.1S (human multiple myeloma)
T4 sequence (Q13422 whole entry): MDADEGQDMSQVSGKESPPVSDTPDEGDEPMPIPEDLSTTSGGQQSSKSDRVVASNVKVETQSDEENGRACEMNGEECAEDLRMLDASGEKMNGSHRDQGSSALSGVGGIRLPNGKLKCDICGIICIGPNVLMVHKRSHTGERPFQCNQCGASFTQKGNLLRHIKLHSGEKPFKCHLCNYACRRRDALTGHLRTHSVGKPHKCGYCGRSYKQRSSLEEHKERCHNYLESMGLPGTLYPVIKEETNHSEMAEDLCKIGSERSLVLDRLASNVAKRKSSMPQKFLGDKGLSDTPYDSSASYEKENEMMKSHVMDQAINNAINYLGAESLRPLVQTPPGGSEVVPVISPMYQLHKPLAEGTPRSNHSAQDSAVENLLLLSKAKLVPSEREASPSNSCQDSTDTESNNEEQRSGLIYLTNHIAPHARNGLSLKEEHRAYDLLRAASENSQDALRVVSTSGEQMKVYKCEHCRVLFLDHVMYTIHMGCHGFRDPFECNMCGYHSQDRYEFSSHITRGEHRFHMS
T4 sequence (Q96SW2 whole entry): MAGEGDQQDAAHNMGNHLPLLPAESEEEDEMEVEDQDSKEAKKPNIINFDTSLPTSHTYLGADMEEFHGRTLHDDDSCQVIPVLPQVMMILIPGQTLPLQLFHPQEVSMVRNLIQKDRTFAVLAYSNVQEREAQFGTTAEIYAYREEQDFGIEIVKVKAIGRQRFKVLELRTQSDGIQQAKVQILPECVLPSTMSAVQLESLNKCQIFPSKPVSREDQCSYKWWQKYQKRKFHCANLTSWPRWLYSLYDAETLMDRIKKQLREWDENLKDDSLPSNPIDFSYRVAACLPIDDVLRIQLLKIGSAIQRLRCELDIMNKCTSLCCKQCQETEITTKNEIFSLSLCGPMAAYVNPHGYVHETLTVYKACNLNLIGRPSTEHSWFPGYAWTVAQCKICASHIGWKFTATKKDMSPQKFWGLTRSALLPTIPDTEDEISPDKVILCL
T4 sequence (Q16531 whole entry partner): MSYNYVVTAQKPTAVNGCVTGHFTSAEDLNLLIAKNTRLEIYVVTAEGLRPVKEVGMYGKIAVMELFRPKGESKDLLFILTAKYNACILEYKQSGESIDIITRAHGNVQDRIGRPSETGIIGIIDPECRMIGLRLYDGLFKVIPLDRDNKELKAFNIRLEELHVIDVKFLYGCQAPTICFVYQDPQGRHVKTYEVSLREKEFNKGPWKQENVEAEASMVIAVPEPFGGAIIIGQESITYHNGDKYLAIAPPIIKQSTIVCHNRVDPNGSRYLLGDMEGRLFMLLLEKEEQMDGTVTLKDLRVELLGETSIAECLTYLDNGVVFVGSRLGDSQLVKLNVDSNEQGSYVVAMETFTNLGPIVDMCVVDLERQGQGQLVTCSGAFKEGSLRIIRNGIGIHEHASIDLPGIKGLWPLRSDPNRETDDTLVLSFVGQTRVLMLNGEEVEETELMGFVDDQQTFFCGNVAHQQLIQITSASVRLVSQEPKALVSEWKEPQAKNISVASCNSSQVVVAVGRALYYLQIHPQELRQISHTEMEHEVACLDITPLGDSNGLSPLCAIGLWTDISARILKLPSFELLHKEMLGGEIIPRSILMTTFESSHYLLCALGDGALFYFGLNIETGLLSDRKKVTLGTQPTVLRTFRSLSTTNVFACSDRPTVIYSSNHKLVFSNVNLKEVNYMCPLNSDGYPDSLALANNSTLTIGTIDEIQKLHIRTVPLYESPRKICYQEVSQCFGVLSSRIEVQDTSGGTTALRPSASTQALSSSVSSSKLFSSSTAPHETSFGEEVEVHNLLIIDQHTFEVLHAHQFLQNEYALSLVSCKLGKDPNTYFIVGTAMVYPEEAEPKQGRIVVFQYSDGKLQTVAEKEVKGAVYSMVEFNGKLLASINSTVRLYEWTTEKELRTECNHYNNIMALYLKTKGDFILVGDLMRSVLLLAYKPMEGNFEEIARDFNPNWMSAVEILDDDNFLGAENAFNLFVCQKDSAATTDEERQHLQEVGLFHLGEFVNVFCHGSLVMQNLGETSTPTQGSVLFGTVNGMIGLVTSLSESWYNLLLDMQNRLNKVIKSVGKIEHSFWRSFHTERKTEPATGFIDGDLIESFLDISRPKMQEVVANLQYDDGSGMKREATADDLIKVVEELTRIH
Text: as §3, §1
as §2, with “was” for “was carried out. Quantification was performed using ImageJ (National Institutes of Health).”

[6] = design: method as in earlier work; conditions: calibration compounds; cited from earlier work
[7] = 0.1 μM, MM.1S cells, normalized to DMSO (100%)
[8] = 1 μM, MM.1S cells, normalized to DMSO (100%)

Structure (SMILES)	chromatographic logD [2]	remaining activity at 0.1 µM (CDK4; [7]) [%]	Selectivity ratio D CDK4/D CDK6 for the degradation of CDK6 over CDK4 (CDK6 [3]; 0.1 μM, MM.1S cells)	remaining activity at 0.1 µM (CDK6 [3]; [7]) [%]	remaining activity at 1 µM (CDK6 [3]; [8]) [%]	Lit. log D7.4 [6]	also measured
CC(=O)c1c(C)c2cnc(Nc3ccc(N4CCN(CCCCCCCC(=O)N[C@H](C(=O)N5C[C@H](O)C[C@H]5C(=O)NCc5ccc(-c6scnc6C)cc5)C(C)(C)C)CC4)cn3)nc2n(C2CCCC2)c1=O [compound 22]	3.3	12	4.1	2.9	4.1		CDK6 degradation in murine cells (CDK6 [1]; Ba/F3 and 32D cells, 1 μM): pronounced CDK6 degradation
CC(=O)c1c(C)c2cnc(Nc3ccc(N4CCN(CCOCCOCCOCC(=O)N[C@H](C(=O)N5C[C@H](O)C[C@H]5C(=O)N[C@@H](C)c5ccc(-c6scnc6C)cc5)C(C)(C)C)CC4)cn3)nc2n(C2CCCC2)c1=O [27 (CST620)]	2.9	33	19	1.7	15		IC50 (HEL cells): 1540 nM; Effect on cell proliferation ([4]; MM.1S, LP-1, AMO-1, MOLM-13, HEL, KG-1, K562, Nalm-6): inhibited cell proliferation; Time CDK6 degradation persists (CDK6 protein below 50%) after drug washout (CDK6 [3]; MM.1S cells): up to 72 h; Persistence of CDK6 degradation after single drug exposure (long-term treatment) (CDK6 [3]; MM.1S cells): satisfactory CDK6 level suppression even after 96 h; Stability to hydrolysis at pH 1 [5]: stable; Inhibitory activity on cell viability relative to palbociclib (MDA-MB-231 cells): inhibitory activity comparable to palbociclib
CC(=O)c1c(C)c2cnc(Nc3ccc(N4CCN(CCOCCOCCOCCNC(=O)COc5cccc6c5C(=O)N(C5CCC(=O)NC5=O)C6=O)CC4)cn3)nc2n(C2CCCC2)c1=O (stereo not shown) [8 (BSJ-03-123), BSJ-03-123, reference compound]	2.5	27	4.9	5.5	2.1		remaining activity at 0.1 µM (IKZF1): 82%; CDK6 degradation in murine cells (CDK6 [1]; 32D and Ba/F3 cells, 0.1 μM): attenuated; Time CDK6 degradation persists (CDK6 protein below 50%) after drug washout (CDK6 [3]; MM.1S cells): ≤ 6 h; Persistence of CDK6 degradation after single drug exposure (long-term treatment) (CDK6 [3]; MM.1S cells): began to recover after 24 h; Stability to hydrolysis at pH 1 [5]: stable; Stability to hydrolysis at pH 7.4 ([5]; buffer pH 7.4, 24 h): pronounced decomposition
CN[C@@H](C)C(=O)N[C@H](C(=O)N1C[C@@H](Oc2cccc(OCCOCCOCCOCCN3CCN(c4ccc(Nc5ncc6c(C)c(C(C)=O)c(=O)n(C7CCCC7)c6n5)nc4)CC3)c2)C[C@H]1C(=O)N[C@@H]1CCCc2ccccc21)C1CCCCC1 [compound 35]	4.3						Cell viability compared with palbociclib, VHL-series PROTACs and IAP ligand 5 ([4]; MM.1S and Nalm-6 cells): more strongly impaired; remaining activity at 0.1 µM (CDK4): 77%; remaining activity at 0.1 µM (CDK6 [3]): 75%; remaining activity at 1 µM (CDK6 [3]): 18%
CC(=O)c1c(C)c2cnc(Nc3ccc(N4CCN(C(=O)CCCCCNc5cccc6c5C(=O)N(C5CCC(=O)NC5=O)C6=O)CC4)cn3)nc2n(C2CCCC2)c1=O (stereo not shown) [compound 11]	3.4	25	2.3	11			remaining activity at 0.1 µM (IKZF1): 1%; CDK6 degradation in murine cells (CDK6 [1]; 32D and Ba/F3 cells, 0.1 μM): induced strong CDK6 degradation; Lowest concentration mediating on-target effects (CDK6 degradation) in murine cells (CDK6 [1]; 32D and Ba/F3 cells): 10 nM
COc1ccc([C@@H]2Sc3ccccc3N(CCN(C)C)C(=O)[C@@H]2OC(C)=O)cc1 [Diltiazem]						2.70	
CC1(C)C(C=C(Cl)Cl)C1C(=O)OCc1cccc(Oc2ccccc2)c1 (stereo not shown) [Permethrin]						6.50	
COCCc1ccc(OCC(O)CNC(C)C)cc1 (stereo not shown) [Metoprolol]						–0.06	
